Data reported in patent publication US8835425B2, “Use of selective GABA A α5 negative allosteric modulators for the treatment of central nervous system conditions” (Hoffmann-La Roche Inc., priority 2010, dated 2014).
Read-outs that look alike come from different tables or passages of the source.

What was measured:
[1] = target: T1, human GABA A α2β3γ2 (Homo sapiens, UniProt P18507+P47869); test: [3H]flumazenil competition binding, HEK293 cells expressing human α2β3γ2; set-up: expressed in transfected cells; host or cells: HEK293; details: for hKi α2/hKi α5: binding selectivity ratio
[2] = target: T2, human GABA A α1β2/3γ2 (Homo sapiens, UniProt P14867+P18507); test: [3H]flumazenil competition binding, HEK293 cells expressing human α1β2/3γ2; set-up: expressed in transfected cells; host or cells: HEK293; details: for hKi α1/hKi α5: binding selectivity ratio
[3] = target: T3, human GABA A α3β3γ2 (Homo sapiens, UniProt P18507+P34903); test: [3H]flumazenil competition binding, HEK293 cells expressing human α3β3γ2; set-up: expressed in transfected cells; host or cells: HEK293; details: for hKi α3/hKi α5: binding selectivity ratio
[4] = target: T4, human GABA A α5β3γ2 (Homo sapiens, UniProt P18507+P31644); test: Two-microelectrode voltage clamp, modulation of GABA EC10 response in Xenopus oocytes, α5β3γ2; type: cell-based; set-up: expressed in transfected cells; host or cells: Xenopus laevis oocytes; details: % change of submaximal (EC10) response to GABA at 30×Ki
Experimental: (§1) Table 2b. […] Effect at human GABA A α5 receptors: % change of a submaximal (EC10) response to GABA determined at 30×Ki value from the flumazenil binding assay.
(§2) Subtype-selective effects were determined on cloned receptors expressed in Xenopus oocytes. Human recombinant GABA A receptors were expressed in Xenopus laevis oocytes. Current responses were evoked in two-microelectrode voltage-clamp condition by applying an EC10 of GABA before and during the co-application of the test compound. Response amplitudes in the presence of the test compound are expressed as percentage of the amplitudes before drug addition.

[5] = target: T2, human GABA A α1β2/3γ2; test: Two-microelectrode voltage clamp, modulation of GABA EC10 response in Xenopus oocytes, α1β2/3γ2; type: cell-based; set-up: expressed in transfected cells; host or cells: Xenopus laevis oocytes; details: % change of EC10 GABA response at 3 μM or at 30×Ki if Ki below 0.1 μM
[6] = target: T1, human GABA A α2β3γ2; test: Two-microelectrode voltage clamp, modulation of GABA EC10 response in Xenopus oocytes, α2β3γ2; type: cell-based; set-up: expressed in transfected cells; host or cells: Xenopus laevis oocytes; details: % change of EC10 GABA response at 3 μM or at 30×Ki if Ki below 0.1 μM
Experimental: as §1, §2

[7] = target: T3, human GABA A α3β3γ2; test: Two-microelectrode voltage clamp, modulation of GABA EC10 response in Xenopus oocytes, α3β3γ2; type: cell-based; set-up: expressed in transfected cells; host or cells: Xenopus laevis oocytes; details: % change of EC10 GABA response at 3 μM or at 30×Ki if Ki below 0.1 μM
Experimental: as §1, §2

[8] = target: T4, human GABA A α5β3γ2; test: [3H]flumazenil competition binding, HEK293 cells expressing human α5β3γ2; set-up: expressed in transfected cells; host or cells: HEK293
[9] = [3H]flumazenil competition, human α1β2/3γ2, read-out: hKi α1
[10] = [3H]flumazenil competition, human α2β3γ2, read-out: hKi α2
[11] = [3H]flumazenil competition, human α3β3γ2, read-out: hKi α3
[12] = [3H]flumazenil competition, human α5β3γ2, read-out: hKi α5

SMILES | hKi α2/hKi α5 [1] | Ki [2] [nM] | hKi α1/hKi α5 [2] | hKi α3/hKi α5 [3] | Efficacy GABA A α5β3γ2 [4] [%] | Efficacy GABA A α1β2/3γ2 [5] | Ki [2, 9] [nM] | Efficacy GABA A α2β3γ2 [6] | Ki [1] [nM] | Efficacy GABA A α3β3γ2 [7] | Ki [8] [nM] | Ki [3] [nM] | Ki [1, 10] [nM] | Ki [3, 11] [nM] | Ki [8, 12] [nM]
FCc1ncn2c1Cn1ncnc1-c1cc(F)ccc1-2 [Compound 8580, 3-Fluoro-10-fluoromethyl-9H-imidazo[1,5-a][1,2,4]triazolo[1,5-d][1,4]benzodiazepine] | 3 | 43.9 | 5 | 3 | −35 | – | – | – | – | – | – | – | – | – | –
N#Cc1ccc2c(c1)-c1ncnn1Cc1c(C(F)F)ncn1-2 [Compound 8582, 3-Cyano-10-difluoromethyl-9H-imidazo[1,5-a][1,2,4]triazolo[1,5-d][1,4]benzodiazepine] | 15 | – | 16 | 6 | −37 | −21% | 256 | – | – | – | – | – | – | – | –
FC(F)c1ncn2c1Cn1ncnc1-c1ccccc1-2 [Compound 8583, 10-Difluoromethyl-9H-imidazo[1,5-a][1,2,4]triazolo[1,5-d][1,4]benzodiazepine] | 9 | – | 18 | 7 | – | – | – | – | – | – | – | – | – | – | –
Cc1nc2n(n1)Cc1c(CF)ncn1-c1ccc(Cl)cc1-2 [Compound 8584, 3-Chloro-10-fluoromethyl-6-methyl-9H-imidazo[1,5-a][1,2,4]triazolo[1,5-d][1,4]benzodiazepine] | 72 | – | 50 | 47 | – | – | 125 | – | – | – | – | – | – | – | –
Clc1ncn2c1Cn1ncnc1-c1ccccc1-2 [Compound 8585, 10-Chloro-9H-imidazo[1,5-a][1,2,4]triazolo[1,5-d][1,4]benzodiazepine] | 5 | – | 14 | 2 | −41 | −37% | – | – | – | – | – | – | – | – | –
Clc1ccc2c(c1)-c1ncnn1Cc1c(Cl)ncn1-2 [Compound 8586, 3,10-Dichloro-9H-imidazo[1,5-a][1,2,4]triazolo[1,5-d][1,4]benzodiazepine] | 12 | 15.3 | 7 | 7 | −33 | −5% | – | +2% | 23.7 | +7% | 2.1 | 14 | – | – | –
Cc1nc2n(n1)Cc1c(Cl)ncn1-c1ccc(C#N)cc1-2 [Compound 8587, 10-Chloro-3-cyano-6-methyl-9H-imidazo[1,5-a][1,2,4]triazolo[1,5-d][1,4]benzodiazepine] | 13 | – | 23 | 10 | −42 | −28% | 250 | – | – | – | 10.9 | – | 141 | 106 | –
FC(F)c1ccc2c(c1)-c1ncnn1Cc1c(Cl)ncn1-2 [Compound 8588, 10-Chloro-3-difluoromethyl-9H-imidazo[1,5-a][1,2,4]triazolo[1,5-d][1,4]benzodiazepine] | 37 | – | 19 | 15 | – | – | – | – | – | – | – | – | – | – | –
Cc1nc2n(n1)Cc1c(Cl)ncn1-c1ccc(Br)cc1-2 [Compound 8589, 3-Bromo-10-chloro-6-methyl-9H-imidazo[1,5-a][1,2,4]triazolo[1,5-d][1,4]benzodiazepine] | 37 | 226 | 37 | 35 | – | – | – | – | 229 | – | 6.1 | 216 | – | – | –
Fc1ccc2c(c1)-c1ncnn1Cc1c(Br)ncn1-2 [Compound 8590, 10-Bromo-3-fluoro-9H-imidazo[1,5-a][1,2,4]triazolo[1,5-d][1,4]benzodiazepine] | 7 | – | 4 | 8 | – | – | – | – | – | – | – | – | – | – | –
Cc1ncn2c1Cn1nc(CN3CCCC3=O)nc1-c1cc(Br)ccc1-2 [Compound 8591, 3-Bromo-10-methyl-6-(2-oxo-pyrrolidin-1-ylmethyl)-9H-imidazo[1,5-a][1,2,4]triazolo[1,5-d][1,4]benzodiazepine] | 94 | – | 88 | 73 | −31 | +4% | 624 | −7% | – | +23% | 7.1 | – | 669 | 515 | –
Cc1onc(-c2ccccc2)c1COc1ccc(C(=O)NC(C)C)cn1 [Compound O1, N-Isopropyl-6-(5-methyl-3-phenyl-isoxazol-4-ylmethoxy)-nicotinamide] | 77 | – | 388 | 85 | −50 | −19% | 504 | −34% | – | −43% | – | – | 101 | 110 | 1.3
Cc1onc(-c2ccccc2)c1COc1ccc(C(=O)N2CCn3cnnc3C2)cn1 [Compound P1, (5,6-Dihydro-8H-[1,2,4]triazolo[4,3-a]pyrazin-7-yl)-[6-(5-methyl-3-phenyl-isoxazol-4-ylmethoxy)-pyridin-3-yl]-methanone] | – | – | – | – | – | – | – | – | – | – | – | – | – | – | 29.9
Cc1onc(-c2ccccc2)c1COc1ccc(C(=O)N2CC3(COC3)C2)cn1 [Compound Q1, [6-(5-Methyl-3-phenyl-isoxazol-4-ylmethoxy)-pyridin-3-yl]-(2-oxa-6-aza-spiro[3.3]hept-6-yl)-methanone] | 29 | – | 42 | 26 | −35 | −11% | 633 | −18% | – | −17% | – | – | 438 | 400 | 15.1
Cc1onc(-c2ccc(Cl)cc2)c1COc1ccc(C(=O)N2CCOCC2)cn1 [Compound S1, {6-[3-(4-Chloro-phenyl)-5-methyl-isoxazol-4-ylmethoxy]-pyridin-3-yl}-morpholin-4-yl-methanone] | 39 | – | 102 | 41 | – | – | 551 | – | – | – | – | – | 209 | 220 | 5.4
Cc1onc(-c2ccccn2)c1COc1ccc(C(=O)N2CCOCC2)cn1 [Compound T1, [6-(5-Methyl-3-pyridin-2-yl-isoxazol-4-ylmethoxy)-pyridin-3-yl]-morpholin-4-yl-methanone] | 20 | – | 32 | 27 | −31 | −3% | 468 | +5% | – | +9% | – | – | 293 | 387 | 14.6
Cc1onc(-c2ccc(F)cn2)c1COc1ccc(C(=O)NC(C)C)cn1 [Compound U1] | – | – | – | – | −33 | −15% | – | −34% | – | −21% | – | – | – | – | –
Cc1onc(-c2ccc(F)cn2)c1COc1ccc(C(=O)N2CCS(=O)(=O)CC2)cn1 [Compound V1, (1,1-Dioxo-1λ,6-thiomorpholin-4-yl)-{6-[3-(5-fluoro-pyridin-2-yl)-5-methyl-isoxazol-4-ylmethoxy]-pyridin-3-yl}-methanone] | 44 | – | 119 | 63 | −33 | 0% | 143 | +9% | – | +16% | – | – | 53.3 | 76.1 | 1.2
Cc1onc(-c2ccc(Cl)cn2)c1COc1ccc(C(=O)N2CCSCC2)cn1 [Compound W1, {6-[3-(5-Chloro-pyridin-2-yl)-5-methyl-isoxazol-4-ylmethoxy]-pyridin-3-yl}-thiomorpholin-4-yl-methanone] | 27 | – | 87 | 44 | – | – | 34.6 | – | – | – | – | – | 10.7 | 17.7 | 0.4
